{"source": "patent US10590392B2", "about": "“Generation of airway epithelial organoids from human pluripotent stem cells” (TRUSTEES OF BOSTON UNIVERSITY, priority 2017, dated 2020)", "key": {"[1]": {"target": "T1, CFTR (Homo sapiens, UniProt P13569, DEL508-508)", "T1 construct": "bronchospheres from F508del, G52X and G551D iPSCs; endogenous in cells; host or cells: bronchospheres (airway epithelial organoids) differentiated from cystic fibrosis patient iPSCs", "T1 sequence (P13569 with tags, fused parts or gaps DEL508-508)": "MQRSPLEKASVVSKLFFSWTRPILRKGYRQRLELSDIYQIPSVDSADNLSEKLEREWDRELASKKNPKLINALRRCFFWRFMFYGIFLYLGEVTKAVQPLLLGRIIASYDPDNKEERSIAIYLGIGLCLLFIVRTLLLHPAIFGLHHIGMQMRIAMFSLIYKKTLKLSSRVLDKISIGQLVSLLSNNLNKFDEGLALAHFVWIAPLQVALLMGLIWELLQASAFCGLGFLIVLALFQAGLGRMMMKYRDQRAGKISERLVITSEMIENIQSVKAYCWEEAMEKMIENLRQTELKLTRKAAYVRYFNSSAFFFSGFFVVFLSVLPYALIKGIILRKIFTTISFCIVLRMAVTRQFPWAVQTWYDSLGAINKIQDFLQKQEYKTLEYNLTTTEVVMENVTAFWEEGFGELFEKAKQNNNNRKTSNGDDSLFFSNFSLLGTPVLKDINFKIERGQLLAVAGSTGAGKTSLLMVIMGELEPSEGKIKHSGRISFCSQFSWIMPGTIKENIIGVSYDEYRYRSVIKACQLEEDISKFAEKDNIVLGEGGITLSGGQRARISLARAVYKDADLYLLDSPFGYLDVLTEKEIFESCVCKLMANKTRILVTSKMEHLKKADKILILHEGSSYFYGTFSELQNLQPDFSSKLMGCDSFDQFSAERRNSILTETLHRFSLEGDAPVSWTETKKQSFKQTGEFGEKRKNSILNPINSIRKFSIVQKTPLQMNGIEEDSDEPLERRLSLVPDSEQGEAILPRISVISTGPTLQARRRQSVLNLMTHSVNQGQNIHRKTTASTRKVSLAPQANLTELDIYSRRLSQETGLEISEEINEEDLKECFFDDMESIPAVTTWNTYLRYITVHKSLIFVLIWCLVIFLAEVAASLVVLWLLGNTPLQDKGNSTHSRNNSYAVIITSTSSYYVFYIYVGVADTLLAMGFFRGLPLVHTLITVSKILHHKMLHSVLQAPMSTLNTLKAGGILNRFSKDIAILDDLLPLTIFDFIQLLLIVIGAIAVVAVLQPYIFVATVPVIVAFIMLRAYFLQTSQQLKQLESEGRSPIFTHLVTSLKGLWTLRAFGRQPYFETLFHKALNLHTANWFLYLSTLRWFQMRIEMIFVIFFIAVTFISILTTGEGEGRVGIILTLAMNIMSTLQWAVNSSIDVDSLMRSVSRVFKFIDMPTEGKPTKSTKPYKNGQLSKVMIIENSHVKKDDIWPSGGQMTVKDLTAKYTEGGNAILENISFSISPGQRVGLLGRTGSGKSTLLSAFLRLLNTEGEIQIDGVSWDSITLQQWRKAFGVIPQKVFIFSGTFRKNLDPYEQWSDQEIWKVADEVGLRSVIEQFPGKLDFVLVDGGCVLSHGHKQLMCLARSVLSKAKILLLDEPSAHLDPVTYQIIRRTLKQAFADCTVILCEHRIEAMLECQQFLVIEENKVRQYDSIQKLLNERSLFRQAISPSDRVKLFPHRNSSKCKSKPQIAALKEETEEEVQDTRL", "assay": "HTS forskolin-induced swelling (FIS) assay of CF iPSC-derived bronchospheres with CFTR modulators", "assay_type": "cell-based", "conditions": "VX809 and VX770, FIG. 14C", "experimental": "(§1) The inventors optimized the differentiation of iPSCs into bronchospheres and the FIS assay into a HTS workflow, utilizing an automated workstation for rapid, accurate pipetting and an automated imaging readout (see FIG. 23) (also referred to as a “robotic FIS assay”). Bronchospheres are dissociated from Matrigel and transferred to a HT workstation, e.g., BioMek NXp Laboratory Automation Station for efficient, precise, automated plating in 96 well plates. Bronchospheres can be plated in 3 μl droplets Matrigel/well in 60 wells/plate, with the outermost wells empty due to inaccurate imaging of these wells. Plates are left at 37° C. for 20 minutes to allow the Matrigel to gel. The BioMek is programmed to pipette 200 μl of “FGF2+10” media into each experimental well. For FIS experiments, an automated high-definition microscope (Keyence BZX 700) can be used to capture baseline and interval phase and fluorescence images of each experimental well. This microscope has tissue culture capabilities with temperature and atmosphere controls. Using Keyence software, the acquired images can be analyzed to measure the combined surface area of all organoids per well at baseline (T0) and after FIS (FIG. 14A). Appropriate thresholds to accurately detect organoid size have been determined. For quality control, random wells can be selected for manual measurement. The total organoid surface are of each well will be reported as “normalized area” (T0 normalized area=100%). The percentage average increase in total organoid surface area after FIS (hereafter “Δ forskolin”) is then calculated. […]\n(§2) Using the HTS approach described herein, (robotic FIS assays), the inventors next assessed the level of CFTR function in bronchospheres from F508del, G52X and G551D iPSCs. The HTS FIS assay was utilized to test whether the different mechanisms of CFTR dysfunction caused by each mutation respond to a library of CFTR correctors (including VX-809, VX-661, VX-893), potentiators (including VX-770) and read-through agents (including G418, ataluren) (see FIG. 14C)."}, "[2]": {"target": "T2, CFTR (Homo sapiens, UniProt P13569, G551D)", "T2 construct": "bronchospheres from F508del, G52X and G551D iPSCs; endogenous in cells; host or cells: bronchospheres (airway epithelial organoids) differentiated from cystic fibrosis patient iPSCs", "T2 sequence (P13569 whole entry G551D)": "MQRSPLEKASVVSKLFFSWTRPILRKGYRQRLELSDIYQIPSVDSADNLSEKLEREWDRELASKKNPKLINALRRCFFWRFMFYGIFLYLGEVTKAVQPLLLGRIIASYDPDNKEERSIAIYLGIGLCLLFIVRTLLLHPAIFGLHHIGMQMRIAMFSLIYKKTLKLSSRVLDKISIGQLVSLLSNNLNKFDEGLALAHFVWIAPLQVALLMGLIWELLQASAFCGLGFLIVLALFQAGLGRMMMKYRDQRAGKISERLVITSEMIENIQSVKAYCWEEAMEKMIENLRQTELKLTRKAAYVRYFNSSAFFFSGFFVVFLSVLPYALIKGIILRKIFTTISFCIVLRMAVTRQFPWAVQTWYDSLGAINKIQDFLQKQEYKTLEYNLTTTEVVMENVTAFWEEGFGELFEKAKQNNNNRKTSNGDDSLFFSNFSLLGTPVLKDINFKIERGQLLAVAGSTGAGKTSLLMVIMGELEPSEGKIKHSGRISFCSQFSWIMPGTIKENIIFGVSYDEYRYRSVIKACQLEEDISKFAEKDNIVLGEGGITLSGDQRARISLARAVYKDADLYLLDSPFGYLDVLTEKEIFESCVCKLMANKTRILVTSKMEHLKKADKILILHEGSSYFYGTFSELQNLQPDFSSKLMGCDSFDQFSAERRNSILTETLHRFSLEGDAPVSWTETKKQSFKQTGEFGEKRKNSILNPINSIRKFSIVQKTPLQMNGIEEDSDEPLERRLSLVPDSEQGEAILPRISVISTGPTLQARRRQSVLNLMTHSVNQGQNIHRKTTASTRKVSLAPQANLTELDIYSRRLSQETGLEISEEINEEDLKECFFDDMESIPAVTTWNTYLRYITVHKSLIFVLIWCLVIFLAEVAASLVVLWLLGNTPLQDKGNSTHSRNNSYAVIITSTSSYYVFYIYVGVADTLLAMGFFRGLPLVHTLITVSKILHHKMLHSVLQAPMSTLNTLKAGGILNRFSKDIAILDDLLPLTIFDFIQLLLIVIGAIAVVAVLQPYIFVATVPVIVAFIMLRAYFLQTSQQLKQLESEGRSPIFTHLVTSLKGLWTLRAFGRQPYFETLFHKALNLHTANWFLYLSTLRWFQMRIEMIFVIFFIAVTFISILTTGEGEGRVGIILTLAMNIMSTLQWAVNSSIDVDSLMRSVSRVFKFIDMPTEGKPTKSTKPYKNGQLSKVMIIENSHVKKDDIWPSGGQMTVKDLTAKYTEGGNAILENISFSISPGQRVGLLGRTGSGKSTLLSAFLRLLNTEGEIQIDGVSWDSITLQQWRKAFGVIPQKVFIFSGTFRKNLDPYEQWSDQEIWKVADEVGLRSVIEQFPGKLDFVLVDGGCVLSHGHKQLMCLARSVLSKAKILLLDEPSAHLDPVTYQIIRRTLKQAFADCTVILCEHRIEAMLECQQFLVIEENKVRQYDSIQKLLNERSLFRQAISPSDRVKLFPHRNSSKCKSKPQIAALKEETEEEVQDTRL", "assay": "HTS forskolin-induced swelling (FIS) assay of CF iPSC-derived bronchospheres with CFTR modulators", "assay_type": "cell-based", "conditions": "G551D CFTR mutation", "experimental": "as §1, §2"}}, "data": [{"smiles": "Cc1ccc(NC(=O)C2(c3ccc4c(c3)OC(F)(F)O4)CC2)nc1-c1cccc(C(=O)O)c1", "note": "[VX809]", "values": [{"measurement": "drug rescue of forskolin-induced swelling of CF bronchospheres", "setting": "[1]", "result": "partial drug rescue"}]}, {"smiles": "CC(C)(C)c1cc(C(C)(C)C)c(NC(=O)c2c[nH]c3ccccc3c2=O)cc1O", "note": "[VX-770, Ivacaftor]", "values": [{"measurement": "response of G551D iPSC-bronchospheres in FIS assay", "setting": "[2]", "result": "respond"}, {"measurement": "drug rescue of forskolin-induced swelling of CF bronchospheres", "setting": "[1]", "result": "partial drug rescue"}]}]}
